According to US20230074252A1, “DOSAGES AND METHODS FOR TREATING PULMONARY ARTERIAL HYPERTENSION WITH RODATRISTAT” (Altavant Sciences GmbH, priority 2020, published 2023):
Entries after “also recorded” stand apart in the source; their conditions may differ.

Tests used:
[1] = target: CYP2C19 (Homo sapiens, UniProt P33261); assay: FDA guidance DDI risk assessment, perpetrator potential; design: from tissue; host or cells: pooled human liver microsomes (n=200 donors); details: predicted @ 600 mg BID
Sequence of CYP2C19 (P33261 whole entry): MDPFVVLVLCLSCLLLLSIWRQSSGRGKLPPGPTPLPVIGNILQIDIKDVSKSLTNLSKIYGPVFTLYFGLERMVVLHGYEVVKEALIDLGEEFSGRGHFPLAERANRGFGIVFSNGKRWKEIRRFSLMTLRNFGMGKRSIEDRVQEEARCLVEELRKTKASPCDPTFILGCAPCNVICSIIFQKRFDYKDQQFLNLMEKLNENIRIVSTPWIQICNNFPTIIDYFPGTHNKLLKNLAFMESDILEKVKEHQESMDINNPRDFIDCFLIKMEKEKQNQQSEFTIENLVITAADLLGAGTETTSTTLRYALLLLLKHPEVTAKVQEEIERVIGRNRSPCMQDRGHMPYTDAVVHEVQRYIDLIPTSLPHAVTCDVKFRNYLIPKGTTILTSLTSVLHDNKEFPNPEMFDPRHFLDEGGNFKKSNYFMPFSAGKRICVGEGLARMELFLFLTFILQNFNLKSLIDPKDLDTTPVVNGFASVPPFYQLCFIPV
Protocol: The potential for rodatristat ethyl or rodatristat to be perpetrators of drug-drug interactions was assessed across in vitro CYP and transporter studies (Tables 1-4). […] This analysis was performed to assess the potential for clinically meaningful DDIs as recommended in FDA Draft Guidance: “In Vitro Metabolism- and Transporter-Mediated Drug-Drug Interaction Studies Guidance for Industry”; October 2017 (FDA, 2017).
R1 and R3 values using free (non-protein bound) drug levels were calculated based on plasma protein binding (fraction bound, fb) of rodatristat ethyl (0.995) and rodatristat (0.991). The FDA Guidance is set forth In Vitro Metabolism- and Transporter-Mediated Drug-Drug Interaction Studies Guidance for Industry (2017). […] Parameters for the prediction are set forth below in Tables 5 and 6.

[2] = Metabolic stability in human hepatocytes; assay type: in vitro ADME; details: 2 h incubation
Protocol: The metabolic stability of RVT-1201 was measured in vitro in hepatocytes, liver microsomes, lung microsomes, intestinal S9, lung S9, liver S9 and whole blood. The major metabolite detected in incubations with human hepatocytes was KAR5417 (KRS-02). RVT-1201 was rapidly metabolized to form KAR5417, with <5% remaining after a 2 h incubation. In heat deactivated rat hepatocytes, <5% RVT-1201 remained after 2 h incubation in the same study. Therefore, RVT-1201 metabolism (and KAR5417 formation) are not dependent on oxidative or conjugative enzymatic processes. Formation of KAR5417 from RVT-1201 is a de-esterification process, which implicates an esterase or esterases as the major mechanism. The enzyme(s) responsible for RVT-1201 metabolism to form KAR5417 has not been identified but are considered to be carboxylesterase(s). In addition, RVT-1201 metabolism and KAR5417 formation were investigated in rat and human whole blood(XT184028).

[3] = target: T1, OATP1B3 (Homo sapiens, UniProt Q9NPD5); assay: In vitro transporter substrate assessment; assay type: in vitro ADME
T1 construct: expressed in transfected cells; host or cells: HEK293
T1 sequence (Q9NPD5 1-702): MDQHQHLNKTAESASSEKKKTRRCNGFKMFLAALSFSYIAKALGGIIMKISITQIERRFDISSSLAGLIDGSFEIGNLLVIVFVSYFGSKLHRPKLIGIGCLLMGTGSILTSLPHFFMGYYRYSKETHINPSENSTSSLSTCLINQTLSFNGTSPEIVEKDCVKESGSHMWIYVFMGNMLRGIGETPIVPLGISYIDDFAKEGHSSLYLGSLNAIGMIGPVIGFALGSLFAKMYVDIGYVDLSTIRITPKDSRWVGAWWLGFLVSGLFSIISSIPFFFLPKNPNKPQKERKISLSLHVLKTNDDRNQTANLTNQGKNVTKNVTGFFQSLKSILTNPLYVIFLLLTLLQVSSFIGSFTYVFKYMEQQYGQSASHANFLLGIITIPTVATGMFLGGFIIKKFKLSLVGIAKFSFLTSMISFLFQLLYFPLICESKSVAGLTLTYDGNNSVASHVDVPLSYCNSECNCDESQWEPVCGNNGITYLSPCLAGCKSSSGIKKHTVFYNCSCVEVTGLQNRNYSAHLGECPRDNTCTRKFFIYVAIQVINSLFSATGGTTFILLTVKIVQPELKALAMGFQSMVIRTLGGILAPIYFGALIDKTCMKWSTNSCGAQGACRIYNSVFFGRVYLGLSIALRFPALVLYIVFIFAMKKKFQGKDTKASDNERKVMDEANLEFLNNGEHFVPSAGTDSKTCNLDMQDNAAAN
Description: (§1) Consequently, the elimination of rodatristat into bile may be impacted by co-administration with agents that are BCRP inhibitors.

[4] = target: T2, BCRP (Homo sapiens, UniProt Q9UNQ0); assay: In vitro transporter substrate assessment; assay type: in vitro ADME
T2 sequence (Q9UNQ0 1-655): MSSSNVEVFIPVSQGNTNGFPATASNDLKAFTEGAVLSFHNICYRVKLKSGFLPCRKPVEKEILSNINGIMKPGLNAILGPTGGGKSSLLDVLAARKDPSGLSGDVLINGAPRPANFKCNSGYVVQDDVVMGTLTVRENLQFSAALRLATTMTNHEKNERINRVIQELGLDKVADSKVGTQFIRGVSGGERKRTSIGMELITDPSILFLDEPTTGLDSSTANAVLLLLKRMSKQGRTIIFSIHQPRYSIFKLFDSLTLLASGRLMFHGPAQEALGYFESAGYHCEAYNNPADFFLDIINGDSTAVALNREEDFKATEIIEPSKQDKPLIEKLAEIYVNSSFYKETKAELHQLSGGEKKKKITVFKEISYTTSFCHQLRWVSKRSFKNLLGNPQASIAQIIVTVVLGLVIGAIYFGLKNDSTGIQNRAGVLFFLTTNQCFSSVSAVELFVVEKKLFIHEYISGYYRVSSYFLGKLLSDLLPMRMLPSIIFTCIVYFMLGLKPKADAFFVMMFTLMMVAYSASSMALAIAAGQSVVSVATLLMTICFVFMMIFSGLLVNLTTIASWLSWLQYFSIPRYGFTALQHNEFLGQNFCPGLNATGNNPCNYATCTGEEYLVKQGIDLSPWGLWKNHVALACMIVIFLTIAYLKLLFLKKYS
Description: as §1

[5] = target: T3, P-gp (Homo sapiens, UniProt P08183); assay: In vitro transporter substrate assessment; assay type: in vitro ADME
T3 construct: endogenous in cells; host or cells: Caco-2
T3 sequence (P08183 whole entry): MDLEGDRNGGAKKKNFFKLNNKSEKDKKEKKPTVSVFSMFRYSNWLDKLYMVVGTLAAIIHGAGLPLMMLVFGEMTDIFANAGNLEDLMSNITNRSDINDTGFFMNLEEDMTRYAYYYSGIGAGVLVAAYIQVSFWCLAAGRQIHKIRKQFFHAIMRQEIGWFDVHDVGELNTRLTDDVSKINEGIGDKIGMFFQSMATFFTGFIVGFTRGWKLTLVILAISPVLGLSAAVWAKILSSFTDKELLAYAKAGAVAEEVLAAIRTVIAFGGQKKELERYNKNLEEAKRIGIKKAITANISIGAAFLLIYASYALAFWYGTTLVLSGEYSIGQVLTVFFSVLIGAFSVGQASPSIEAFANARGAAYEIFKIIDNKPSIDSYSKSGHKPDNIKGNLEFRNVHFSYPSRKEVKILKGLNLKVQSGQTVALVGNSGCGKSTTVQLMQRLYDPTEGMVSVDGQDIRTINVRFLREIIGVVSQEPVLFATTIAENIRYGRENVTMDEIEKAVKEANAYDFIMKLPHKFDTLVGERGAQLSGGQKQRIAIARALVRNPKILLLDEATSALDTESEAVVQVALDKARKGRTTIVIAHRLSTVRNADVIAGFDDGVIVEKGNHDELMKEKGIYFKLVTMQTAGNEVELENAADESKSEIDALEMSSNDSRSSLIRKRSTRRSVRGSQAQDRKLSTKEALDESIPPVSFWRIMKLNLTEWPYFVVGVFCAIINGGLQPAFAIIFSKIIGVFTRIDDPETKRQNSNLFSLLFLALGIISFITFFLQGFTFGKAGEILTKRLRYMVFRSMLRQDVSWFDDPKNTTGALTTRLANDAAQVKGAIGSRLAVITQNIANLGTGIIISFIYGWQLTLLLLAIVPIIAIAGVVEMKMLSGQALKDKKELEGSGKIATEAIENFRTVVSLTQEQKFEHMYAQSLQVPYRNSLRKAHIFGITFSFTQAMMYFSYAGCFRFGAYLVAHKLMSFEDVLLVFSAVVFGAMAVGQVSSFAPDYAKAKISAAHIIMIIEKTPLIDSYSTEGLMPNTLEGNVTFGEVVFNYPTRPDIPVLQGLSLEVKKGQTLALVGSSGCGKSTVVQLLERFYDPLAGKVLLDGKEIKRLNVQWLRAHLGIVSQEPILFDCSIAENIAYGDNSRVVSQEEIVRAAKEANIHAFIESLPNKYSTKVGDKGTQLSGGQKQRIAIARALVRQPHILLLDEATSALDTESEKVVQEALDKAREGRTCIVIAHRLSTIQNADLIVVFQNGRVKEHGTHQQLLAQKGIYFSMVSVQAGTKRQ
Description: as §1

[6] = target: T4, MRP2 (Homo sapiens, UniProt Q92887); assay: In vitro transporter substrate assessment; assay type: in vitro ADME
T4 sequence (Q92887 whole entry): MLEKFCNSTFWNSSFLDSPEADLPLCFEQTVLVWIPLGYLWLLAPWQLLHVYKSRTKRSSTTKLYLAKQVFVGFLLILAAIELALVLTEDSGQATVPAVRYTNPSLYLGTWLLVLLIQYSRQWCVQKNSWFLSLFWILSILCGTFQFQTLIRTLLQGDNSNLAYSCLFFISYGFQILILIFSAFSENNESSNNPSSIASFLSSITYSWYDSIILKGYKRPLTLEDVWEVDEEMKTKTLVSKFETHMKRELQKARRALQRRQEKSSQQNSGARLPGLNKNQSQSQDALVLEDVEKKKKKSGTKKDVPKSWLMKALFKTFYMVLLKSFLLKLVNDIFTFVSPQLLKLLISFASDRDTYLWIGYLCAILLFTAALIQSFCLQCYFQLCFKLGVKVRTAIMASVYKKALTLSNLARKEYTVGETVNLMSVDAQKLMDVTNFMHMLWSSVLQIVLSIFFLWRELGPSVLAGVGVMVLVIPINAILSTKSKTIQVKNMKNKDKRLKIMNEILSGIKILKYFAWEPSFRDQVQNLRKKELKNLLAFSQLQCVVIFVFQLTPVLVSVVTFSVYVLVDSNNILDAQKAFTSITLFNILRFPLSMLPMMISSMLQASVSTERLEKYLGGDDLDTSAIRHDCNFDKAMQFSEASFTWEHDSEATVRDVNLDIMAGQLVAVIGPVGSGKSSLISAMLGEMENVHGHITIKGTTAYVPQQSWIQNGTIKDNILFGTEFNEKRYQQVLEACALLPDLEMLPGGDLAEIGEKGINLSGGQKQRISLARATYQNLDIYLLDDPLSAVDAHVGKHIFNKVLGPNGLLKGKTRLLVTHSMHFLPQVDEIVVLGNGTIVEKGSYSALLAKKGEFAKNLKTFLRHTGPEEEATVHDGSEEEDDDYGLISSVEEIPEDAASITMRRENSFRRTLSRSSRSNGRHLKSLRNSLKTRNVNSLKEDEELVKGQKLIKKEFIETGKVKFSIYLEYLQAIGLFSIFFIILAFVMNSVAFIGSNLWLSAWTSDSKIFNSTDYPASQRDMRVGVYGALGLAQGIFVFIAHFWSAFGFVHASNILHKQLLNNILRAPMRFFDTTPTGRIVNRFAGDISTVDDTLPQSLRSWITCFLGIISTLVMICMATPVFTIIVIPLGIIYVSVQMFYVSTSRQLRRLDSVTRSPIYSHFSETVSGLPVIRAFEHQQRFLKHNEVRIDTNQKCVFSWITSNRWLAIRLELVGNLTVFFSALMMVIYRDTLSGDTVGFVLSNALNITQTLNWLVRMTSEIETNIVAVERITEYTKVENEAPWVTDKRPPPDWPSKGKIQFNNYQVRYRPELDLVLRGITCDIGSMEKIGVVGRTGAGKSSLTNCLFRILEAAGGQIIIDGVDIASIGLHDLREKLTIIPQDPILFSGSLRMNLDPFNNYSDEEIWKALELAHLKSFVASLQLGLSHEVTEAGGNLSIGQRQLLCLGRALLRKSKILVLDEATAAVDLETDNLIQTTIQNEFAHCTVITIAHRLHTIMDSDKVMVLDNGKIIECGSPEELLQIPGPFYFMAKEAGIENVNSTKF
Description: as §1

[7] = Stability in human whole blood; assay type: in vitro ADME
Protocol: However, in human whole blood incubations, no loss of RVT-1201 was observed. […] Therefore, metabolism of RVT-1201 was assigned to a cytosolic carboxylesterase (CES1) within the PBPK model. Although the enzyme responsible for RVT-1201 elimination and KAR5417 formation has not been identified, CES1 was selected to represent the enzymatic metabolism of RVT-1201 for this fit-for-purpose PBPK model.

[8] = target: T4, MRP2; assay: Transporter inhibition, in vitro; assay type: in vitro ADME; details: for Potential for interaction? (transporter inhibitor), MRP2: predicted @ 600 mg BID
[9] = Elimination route in rat; assay type: in vivo
Description: The metabolism of rodatristat ethyl is predominantly by esterase mediated hydrolysis of the ester pro-drug moiety to rodatristat in liver tissue preparations from human, rat, dog, and cynomolgus monkey, and intestinal and lung tissues from rat and human. Hydrolysis of rodatristat ethyl was also observed in rat blood, and to a much lesser extent in dog and human blood.

Row | Potential for interaction (perpetrator), CYP2C19 [1] | Remaining after incubation with human hepatocytes [2] | In vitro substrate? OATP1B3 [3] | Loss in human whole blood incubations [7] | Potential for interaction? (transporter inhibitor), MRP2 [8] | Elimination route [9] | Accumulation by OATP1B3 uptake transporter ([3]; 3 μM) | inhibition at 30 µM ([8]; nominal 30 μM) | SMILES | In vitro substrate? BCRP [4] | In vitro substrate? P-gp [5] | In vitro substrate? MRP2 [6]
1 | No | < 5% | not a substrate and No | no loss | No | – | – | – | CCOC(=O)[C@@H]1CC2(CCN(c3cc(O[C@H](c4ccc(Cl)cc4-c4ccccc4)C(F)(F)F)nc(N)n3)CC2)CN1 [Rodatristat ethyl, (S)-ethyl 8-(2-amino-6-((R)-1-(5-chloro-[1,1′-biphenyl]-2-yl)-2,2,2-trifluoroethoxy)pyrimidin-4-yl)-2,8-diazaspiro[4.5]decane-3-carboxylate] | not a substrate; also recorded: not likely | not a substrate; also recorded: not likely | not a substrate; also recorded: not likely
2 | No | – | is an in vitro substrate and Yes | – | No^a | largely eliminated unchanged in bile | 9.28 fold | 25% | Nc1nc(O[C@H](c2ccc(Cl)cc2-c2ccccc2)C(F)(F)F)cc(N2CCC3(CC2)CN[C@H](C(=O)O)C3)n1 [Rodatristat, (S)-8-(2-amino-6-((R)-1-(5-chloro-[1,1′-biphenyl]-2-yl)-2,2,2-trifluoroeth-oxy)pyrimidin-4-yl)-2,8-diazaspiro[4.5]decane-3-carboxylic acid] | potential substrate | potential substrate | not an in vitro substrate; also recorded: Not likely
